Data set [1] concerns the target T1, human FAK (Homo sapiens, UniProt Q05397).
T1 construct: The complete cDNA of human FAK; made in house; host or cells: baculovirus expression system (vector pFastBac HTc)
In words: FAK autophosphorylation inhibition, time resolved fluorescence (HTRF) assay. Type of data set: biochemical. The note with it: 10 μM (values without asterisk); read-out: FAK % inhib at 10 μM. In outline:
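His-tagged full-length human FAK from baculovirus (6.6 µg/ml) self-phosphorylates with 15 µM ATP in HEPES pH 7.2, MgCl2, vanadate, 1 h at 37 °C. HTRF detection (Eu-anti-phosphotyrosine / XL665-anti-His), 665/620 nm ratio; % inhibition vs untreated control, duplicate mean.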
Background: TR-FRET usually uses a lanthanide donor and a delayed reading to cut background.

In data set [2] the target is T2, Aurora2 kinase (Homo sapiens, UniProt O14965).
T2 construct: A complete recombinant Aurora2 enzyme; His tag (N); made in house; host or cells: E. coli
T2 sequence (O14965 1-403): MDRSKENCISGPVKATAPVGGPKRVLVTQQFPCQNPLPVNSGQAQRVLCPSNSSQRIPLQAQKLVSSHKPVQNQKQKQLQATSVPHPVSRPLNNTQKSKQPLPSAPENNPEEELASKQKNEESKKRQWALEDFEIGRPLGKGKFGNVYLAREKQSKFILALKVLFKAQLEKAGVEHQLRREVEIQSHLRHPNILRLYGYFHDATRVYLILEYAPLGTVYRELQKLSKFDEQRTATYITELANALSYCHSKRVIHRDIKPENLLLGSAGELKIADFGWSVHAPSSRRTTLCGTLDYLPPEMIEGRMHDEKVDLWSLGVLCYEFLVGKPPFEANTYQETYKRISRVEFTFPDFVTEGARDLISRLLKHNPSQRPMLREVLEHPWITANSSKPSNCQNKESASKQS
In words: Aurora2 kinase radioactivity scintillation assay using nickel chelate (NuMA substrate). The format is biochemical. The note with it: 10 μM; read-out: Aurora2 % inhib at 10 μM. A digest of the protocol: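 His-tagged full-length Aurora2 (0.02 μM, E. coli) phosphorylating His-tagged NuMA C-terminal fragment (0.5 μM) with 1 μM ATP plus [33P]-ATP, 30 min at 37 °C, pH 7.5 Tris buffer with MgCl2. Nickel-chelate scintillation read; percent inhibition versus no-compound control.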

For data set [3], the target named is T3, human KDR enzyme (Homo sapiens, UniProt P35968).
T3 construct: The cytoplasmic domain of the human KDR enzyme; GST; made in house; host or cells: SF21 insect cells (baculovirus)
In words: KDR substrate (PLCγ) phosphorylation, scintillation assay. The format is biochemical. To be noted: 10 μM; read-out: KDR % inhib at 10 μM. A digest of the protocol:
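GST-fused human KDR cytoplasmic domain from SF21 cells (about 60% pure, 100 ng) phosphorylated 2 μg of GST-PLCγ SH2-SH3 fragment. The trigger solution held γ33P-ATP with 2 μM cold ATP, in MOPS buffer pH 7.2 with Mg2+, Mn2+, vanadate and NaF. Reactions ran 1 h at 37 °C, were stopped with EDTA and counted by scintillation; results are % inhibition versus the no-compound control.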

Data set [4] has as its target T4, human IGF1R cytoplasmic domain (Homo sapiens, UniProt P08069).
T4 construct: The human IGF1R cytoplasmic domain was cloned; made in house; host or cells: SF21 insect cells (baculovirus)
The data set can be described thus: IGF1R autophosphorylation inhibition, time resolved fluorescence (HTRF) assay. Type of data set: biochemical. The note with it: 10 μM; read-out: IGF1R % inhib at 10 μM. In outline:
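GST-tagged human IGF1R cytoplasmic domain from SF21 cells incubated with compound in 50 mM Hepes pH 7.5, 5 mM MnCl2, 50 mM NaCl, […] ATP. Autophosphorylation detected by HTRF (Eu-K anti-phosphotyrosine, XL665 anti-GST) after EDTA/KF stop; percentage inhibition versus no-compound control.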

This note sets out measurements from patent publication US6858638B2, “Substituted indazoles, compositions containing them, method of production and use” (Aventis Pharma S.A., priority 2002, dated 2005).

The melting point is the temperature, or range, at which the solid turns liquid.

Counter-ions that a name gives are not always drawn.

T1 sequence (Q05397 whole entry): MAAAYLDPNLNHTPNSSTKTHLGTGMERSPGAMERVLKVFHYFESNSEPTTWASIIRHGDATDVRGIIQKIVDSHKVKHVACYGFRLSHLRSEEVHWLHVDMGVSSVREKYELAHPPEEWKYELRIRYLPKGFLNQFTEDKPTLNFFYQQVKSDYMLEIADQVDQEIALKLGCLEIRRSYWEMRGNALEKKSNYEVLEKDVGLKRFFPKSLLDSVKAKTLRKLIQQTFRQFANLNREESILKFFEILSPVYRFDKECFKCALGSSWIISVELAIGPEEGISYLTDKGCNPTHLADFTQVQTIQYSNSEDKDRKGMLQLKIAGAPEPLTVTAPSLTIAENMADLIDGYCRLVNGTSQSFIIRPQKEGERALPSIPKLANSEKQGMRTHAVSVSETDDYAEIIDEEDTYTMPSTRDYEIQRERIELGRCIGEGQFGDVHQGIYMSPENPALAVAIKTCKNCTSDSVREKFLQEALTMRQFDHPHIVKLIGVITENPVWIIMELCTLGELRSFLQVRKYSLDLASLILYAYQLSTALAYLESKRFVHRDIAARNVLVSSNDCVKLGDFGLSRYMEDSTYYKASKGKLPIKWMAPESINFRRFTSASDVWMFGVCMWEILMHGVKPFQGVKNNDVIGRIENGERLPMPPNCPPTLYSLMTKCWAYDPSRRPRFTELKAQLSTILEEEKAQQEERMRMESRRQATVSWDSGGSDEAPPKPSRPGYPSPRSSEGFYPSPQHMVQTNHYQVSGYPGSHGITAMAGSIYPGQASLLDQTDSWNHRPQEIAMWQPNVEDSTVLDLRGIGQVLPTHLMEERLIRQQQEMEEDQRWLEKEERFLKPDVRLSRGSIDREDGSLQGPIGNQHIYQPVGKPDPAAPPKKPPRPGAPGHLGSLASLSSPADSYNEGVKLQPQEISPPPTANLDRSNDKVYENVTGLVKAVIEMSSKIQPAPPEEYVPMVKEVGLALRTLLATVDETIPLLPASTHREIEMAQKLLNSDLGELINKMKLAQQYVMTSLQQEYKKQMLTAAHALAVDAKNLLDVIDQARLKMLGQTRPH
T4 sequence (P08069 960-1367 limits assumed): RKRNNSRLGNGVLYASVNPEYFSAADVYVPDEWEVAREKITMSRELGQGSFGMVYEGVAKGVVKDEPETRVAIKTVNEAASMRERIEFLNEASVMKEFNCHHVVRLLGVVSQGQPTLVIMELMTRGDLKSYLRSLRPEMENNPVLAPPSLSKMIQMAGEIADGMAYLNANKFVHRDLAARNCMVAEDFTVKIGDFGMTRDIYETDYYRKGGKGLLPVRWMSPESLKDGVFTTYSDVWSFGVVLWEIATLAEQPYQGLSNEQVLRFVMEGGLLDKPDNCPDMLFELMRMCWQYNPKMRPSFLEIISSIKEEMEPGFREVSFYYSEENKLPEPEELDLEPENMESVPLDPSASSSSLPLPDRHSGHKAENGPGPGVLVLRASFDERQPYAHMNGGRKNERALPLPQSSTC
T3 sequence (P35968 786-1356 limits assumed): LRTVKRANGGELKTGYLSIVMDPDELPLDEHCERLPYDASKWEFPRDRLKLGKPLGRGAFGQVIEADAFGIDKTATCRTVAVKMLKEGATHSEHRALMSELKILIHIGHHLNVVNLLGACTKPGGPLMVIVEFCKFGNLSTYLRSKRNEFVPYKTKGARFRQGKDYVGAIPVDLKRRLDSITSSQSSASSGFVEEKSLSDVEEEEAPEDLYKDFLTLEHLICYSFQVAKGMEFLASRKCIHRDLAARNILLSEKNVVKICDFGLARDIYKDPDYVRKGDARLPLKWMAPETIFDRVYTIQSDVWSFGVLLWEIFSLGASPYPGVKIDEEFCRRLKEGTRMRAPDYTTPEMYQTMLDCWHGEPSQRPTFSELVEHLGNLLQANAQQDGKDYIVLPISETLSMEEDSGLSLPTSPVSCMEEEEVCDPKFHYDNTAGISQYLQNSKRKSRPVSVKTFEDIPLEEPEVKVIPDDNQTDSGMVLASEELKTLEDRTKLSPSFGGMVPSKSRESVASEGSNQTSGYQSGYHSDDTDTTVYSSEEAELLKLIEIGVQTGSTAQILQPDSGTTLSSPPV

On to `O=S(=O)(Oc1ccc2[nH]ncc2c1)c1cccc(F)c1` (as salt: benzenesulfonate) [Example 17, 1H-Indazol-5-yl 3-fluorobenzenesulfonate], for which the melting point came to 104 °C.

In turn, `CS(=O)(=O)c1ccccc1S(=O)(=O)Nc1ccc2[nH]nc(C#N)c2c1` (hydrate or solvate) [Example 5, N-(3-Cyano-1H-indazol-5-yl)-2-methylsulfonylbenzenesulfonamide] showed a melting point of 272 °C.

In the case of `CS(=O)(=O)Nc1n[nH]c2ccc(NS(=O)(=O)c3cccc(F)c3)cc12` (hydrate or solvate) [Example 27, 3-Fluoro-N-(3-methylsulfonylamino-1H-indazol-5-yl)benzenesulfonamide], the melting point was found to be 230 °C.

`CC(=O)Nc1n[nH]c2ccc(NS(=O)(=O)c3cccc(F)c3)cc12` (hydrate or solvate) [Example 28, N-[5-(3-Fluorobenzenesulfonylamino)-1H-indazol-3-yl)acetamide] gave a melting point of 246 °C.

Consider `O=C(Nc1n[nH]c2ccc(NS(=O)(=O)c3cc(F)cc(F)c3)cc12)c1ccccc1` (hydrate or solvate) [Example 46, N-[5-(3,5-Difluorobenzenesulfonylamino)-1H-indazol-3-yl]benzamide], for which the melting point worked out at 246 °C.

`CC(=O)Nc1ccccc1-c1n[nH]c2ccc(NS(=O)(=O)c3cccc(F)c3)cc12` (hydrate or solvate) [Example 47, N-{2-[5-(3-Fluorobenzenesulfonylamino)-1H-indazol-3-yl]phenyl}acetamide] showed a melting point of 135 °C.

In the case of `CS(=O)(=O)c1ccc(-c2n[nH]c3ccc(NS(=O)(=O)c4ccccc4S(C)(=O)=O)cc23)cc1` [Example 220, 2-Methanesulfonyl-N-[3-(4-methanesulfonylphenyl)-1H-indazol-5-yl]-benzenesulfonamide], the inhibition at 10 µM in data set [1] turned out to be 96%; in data set [2], 95%; in data set [3], 88%; in data set [4], 75%.

`CS(=O)(=O)c1ccccc1S(=O)(=O)Nc1ccc2[nH]nc(-c3cccc(F)c3F)c2c1` [Example 221, N-[3-(2,3-Difluorophenyl)-1H-indazol-5-yl]-2-methanesulfonyl-benzenesulfonamide]: the inhibition at 10 µM in data set [1] came out at 94%; in data set [2] it was 84%; in data set [3], 60%; in data set [4] it was 50%.

As to `Cc1cc(-c2n[nH]c3ccc(NS(=O)(=O)c4ccccc4S(C)(=O)=O)cc23)ccc1F` [Example 222, N-[3-(4-Fluoro-3-methyl-phenyl)-1H-indazol-5-yl]-2-methanesulfonyl-benzenesulfonamide], the inhibition at 10 µM in data set [1] was determined as 94%; in data set [2], 92%; in data set [3], 49%; in data set [4] it was 66%.

Regarding `CS(=O)(=O)c1ccccc1S(=O)(=O)Nc1ccc2[nH]nc(-c3cccc(OCc4ccccc4)c3)c2c1` [Example 223, N-[3-(3-Benzyloxyphenyl)-1H-indazol-5-yl]-2-methanesulfonyl-benzenesulfonamide], the inhibition at 10 µM amounted to 70% in data set [1], 31% in data set [2], 23% in data set [3] and 0% in data set [4].

For `Cc1ccc(-c2n[nH]c3ccc(NS(=O)(=O)c4ccccc4S(C)(=O)=O)cc23)cc1F` [Example 224, N-[3-(3-Fluoro-4-methyl-phenyl)-1H-indazol-5-yl]-2-methanesulfonyl-benzenesulfonamide], the inhibition at 10 µM in data set [1] amounted to 91%; in data set [2], 92%; in data set [3], 71%; in data set [4], 70%.

Turning to `CS(=O)(=O)c1ccccc1S(=O)(=O)Nc1ccc2[nH]nc(-c3cc(Cl)ccc3Cl)c2c1` [Example 225, N-[3-(2,5-Dichlorophenyl)-1H-indazol-5-yl]-2-methanesulfonyl-benzenesulfonamide], the inhibition at 10 µM in data set [1] worked out at 51%; in data set [2], 49%; in data set [3], 12%; in data set [4], 27%.
